IC50 data for 19 compounds are collected here from patent US20090005375A1, “ACETYL COENZYME A CARBOXYLASE INHIBITORS” (priority 2007, published 2009).

One experiment deals with T1, Human ACC1 (Homo sapiens, UniProt Q13085).
T1 construct: made in house; host or cells: SF-9 insect cells (baculovirus, pFAST-BacHTc)
Briefly: In vitro enzymatic ACC activity assay (malachite green), ACC1. In kind it is biochemical. Conditions: recombinant His-tagged enzyme, absorbance at 620 nm. Here is the method:
(§1) Provided in Example A is an in vitro enzymatic ACC activity assay for activity against ACC. The binding affinity of the test compound to ACC1 or ACC2 is determined by the changes in absorbance (at 620 nm); […]. It should be noted that a variety of other expression systems and hosts are also suitable for the expression of ACC, as would be readily appreciated by one of skill in the art.
Human ACC1 cDNA was amplified from human liver cDNA by polymerase chain reaction using primers; 5′[…]3′ (SEQ ID NO: 1) and 5′[…]3′ (SEQ ID NO: 2). The amplified DNA fragment was digested by restriction enzyme SalI and NotI, and cloned into pFAST-BacHTc (Invitrogen). This plasmid DNA was used for preparation of recombinant vaculovirus with BAC-TO-BAC Baculovirus Expression System (Invitrogen).
SF-9 cells were infected with the vaculovirus and cultured at 27° C. for 3 days. Harvested cells were homogenized in buffer A (25 mM HEPES (pH7.5), 130 mM NaCl, 1 mM EDTA, 25 mM sodium glycerophosphate, 1 mM sodium orthovanadate, 10% glycerol, complete protease inhibitor), and subjected to ultracentrifuge at 185700×g for 50 min at 4° C. ACC1 protein with 6×His-tag at the N-terminal was purified from the supernatant using Ni-NTA Super Flow Gel (QIAGEN). Eluted protein was dialysed against buffer B (50 mM HEPES (pH 7.5), 300 mM NaCl, 10 mM MgCl2, 10 mM tripotassium citrate, 2 mM dithiothreitol) and concentrated using Vivaspin20 ultrafiltration tube (Sartorius).
(§2) Malachite green solution was prepared by mixing 100 mL of solution A (0.12% malachite green in 5NH2SO4), 25 mL of solution B (7.5% ammonium molybdate) and 2 mL of solution C (11% TWEEN-20).
(§3) ACC1 was diluted to 8 μg/mL in reaction buffer (50 mM HEPES pH7.5, 10 mM MgCl2, 10 mM tripotassium citrate, 2 mM DTT, 0.75 mg/mL fatty acid free BSA) and 10 μL diluted enzyme solution was pored into each well of 384-well clear bottom plate. Test compound was diluted in the reaction buffer and 5 μL of the compound solution was added into each well, and the mixture was incubated at 30° C. for 60 minutes. Reaction was initiated by addition of 5 μL substrate solution (50 mM KHCO3, 200 μM ATP, 200 μM acetyl-CoA). After incubation at 30° C. for 20 minutes, reaction was terminated by addition of 5 μL malachite green solution and absorbance at 620 nm was measured.
(§4) Percent activity at each concentration of compound was calculated from the following equation: […]
(§5) Data were subjected to nonlinear regression analysis using GraphPad Prism Software (GraphPad Software Inc.) to obtain IC50 values.

The target in another experiment is T2, Human ACC2 (Homo sapiens, UniProt O00763).
T2 construct: made in house; host or cells: SF-9 insect cells (baculovirus, pFAST-BacHTa)
Briefly: In vitro enzymatic ACC activity assay (malachite green), ACC2. Conditions: recombinant His-tagged enzyme, absorbance at 620 nm. The class given is biochemical. As for the experimental part: as §1
Human ACC2 cDNA except coding region for mitochondria localization sequence was amplified from human skeletal muscle cDNA by polymerase chain reaction using primers; 5′[…]3′ (SEQ ID NO: 3) and 5′[…]3′ (SEQ ID NO: 4). The amplified DNA fragment was digested by SalI and AflII, and cloned into pFAST-BacHTa (Invitrogen). Preparation of recombinant vaculovirus, infection of the virus to SF-9 cells and purification of recombinant ACC2 protein with 6×His-tag at the N-terminal were performed in the same method as described above.
as §2, §3
ACC2 was diluted to 6.4 μg/mL in reaction buffer, and the activity was measured by the same method as described for ACC1.
as §4, §5

A value given as a limit tells only on which side of the number the result lay.

T2 sequence (O00763 117-2458 limits assumed): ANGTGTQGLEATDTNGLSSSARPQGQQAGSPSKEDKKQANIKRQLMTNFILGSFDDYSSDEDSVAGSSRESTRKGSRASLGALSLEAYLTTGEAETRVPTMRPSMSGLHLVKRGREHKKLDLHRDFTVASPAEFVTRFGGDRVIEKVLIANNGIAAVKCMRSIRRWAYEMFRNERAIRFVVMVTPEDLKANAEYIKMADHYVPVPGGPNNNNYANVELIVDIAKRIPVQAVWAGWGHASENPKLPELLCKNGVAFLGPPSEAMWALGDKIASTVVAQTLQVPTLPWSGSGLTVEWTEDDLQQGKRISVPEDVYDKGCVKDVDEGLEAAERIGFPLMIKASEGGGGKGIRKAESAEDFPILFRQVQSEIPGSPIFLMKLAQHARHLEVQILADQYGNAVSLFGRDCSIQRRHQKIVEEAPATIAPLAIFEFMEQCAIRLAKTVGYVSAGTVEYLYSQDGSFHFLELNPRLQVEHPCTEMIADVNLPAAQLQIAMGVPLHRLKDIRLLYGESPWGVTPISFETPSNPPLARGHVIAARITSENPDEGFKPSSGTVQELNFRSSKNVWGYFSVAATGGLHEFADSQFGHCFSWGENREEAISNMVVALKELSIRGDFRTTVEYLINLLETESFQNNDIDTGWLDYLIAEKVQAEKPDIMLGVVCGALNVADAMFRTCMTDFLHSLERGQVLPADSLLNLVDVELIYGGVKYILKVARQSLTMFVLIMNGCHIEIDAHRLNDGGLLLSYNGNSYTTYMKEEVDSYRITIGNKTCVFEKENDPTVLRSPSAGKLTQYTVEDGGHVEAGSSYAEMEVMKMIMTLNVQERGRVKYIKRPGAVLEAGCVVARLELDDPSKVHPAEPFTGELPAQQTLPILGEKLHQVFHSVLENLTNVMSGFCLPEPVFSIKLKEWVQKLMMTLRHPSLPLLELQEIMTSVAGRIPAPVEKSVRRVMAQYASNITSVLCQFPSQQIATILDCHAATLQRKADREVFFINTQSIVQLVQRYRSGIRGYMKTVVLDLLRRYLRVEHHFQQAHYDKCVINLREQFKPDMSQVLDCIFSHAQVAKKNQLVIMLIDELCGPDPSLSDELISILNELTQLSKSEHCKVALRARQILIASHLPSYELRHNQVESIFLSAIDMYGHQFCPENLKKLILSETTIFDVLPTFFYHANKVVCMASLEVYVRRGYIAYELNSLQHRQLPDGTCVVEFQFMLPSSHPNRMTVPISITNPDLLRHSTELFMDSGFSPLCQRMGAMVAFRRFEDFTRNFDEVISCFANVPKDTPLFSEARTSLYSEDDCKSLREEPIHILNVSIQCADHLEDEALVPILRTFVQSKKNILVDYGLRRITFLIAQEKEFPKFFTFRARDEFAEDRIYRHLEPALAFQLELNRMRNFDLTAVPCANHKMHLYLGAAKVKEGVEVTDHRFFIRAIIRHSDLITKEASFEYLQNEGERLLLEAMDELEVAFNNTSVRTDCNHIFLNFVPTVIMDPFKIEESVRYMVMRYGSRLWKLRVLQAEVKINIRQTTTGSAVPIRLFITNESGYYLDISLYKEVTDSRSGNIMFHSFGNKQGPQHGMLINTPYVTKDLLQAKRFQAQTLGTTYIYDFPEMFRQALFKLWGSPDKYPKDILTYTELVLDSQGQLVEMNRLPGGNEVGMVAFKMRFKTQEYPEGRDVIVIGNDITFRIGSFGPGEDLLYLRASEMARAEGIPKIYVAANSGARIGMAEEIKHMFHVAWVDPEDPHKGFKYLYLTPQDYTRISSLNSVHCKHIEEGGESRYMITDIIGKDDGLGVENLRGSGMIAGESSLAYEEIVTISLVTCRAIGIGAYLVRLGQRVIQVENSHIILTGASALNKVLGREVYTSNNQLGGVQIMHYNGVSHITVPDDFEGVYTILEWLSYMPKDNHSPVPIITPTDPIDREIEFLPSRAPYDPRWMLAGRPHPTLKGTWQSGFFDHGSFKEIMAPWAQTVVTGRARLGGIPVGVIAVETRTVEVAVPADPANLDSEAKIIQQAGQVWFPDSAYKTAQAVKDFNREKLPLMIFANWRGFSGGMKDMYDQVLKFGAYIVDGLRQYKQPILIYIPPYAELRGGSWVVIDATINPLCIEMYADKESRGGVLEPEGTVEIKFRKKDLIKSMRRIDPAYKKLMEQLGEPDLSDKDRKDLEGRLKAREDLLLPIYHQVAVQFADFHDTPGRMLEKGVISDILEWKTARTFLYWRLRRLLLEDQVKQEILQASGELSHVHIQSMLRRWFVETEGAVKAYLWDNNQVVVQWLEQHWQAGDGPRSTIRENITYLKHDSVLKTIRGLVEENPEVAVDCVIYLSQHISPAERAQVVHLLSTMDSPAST

Broadly, the IC50 is the midpoint of a concentration-inhibition curve. With `CCNC(=O)Nc1sc2ccccc2c1C(=O)N1CCN(S(=O)(=O)c2ccc(OC)c(OC)c2)CC1` [Example 23, 1-(3-(4-(3,4-dimethoxyphenylsulfonyl)piperazine-1-carbonyl)benzo[b]thiophen-2-yl)-3-ethylurea], the IC50 on Human ACC1 and at Human ACC2 was less than 5 µM in each case.

`CCNC(=O)Nc1sc2ccccc2c1C(=O)N1CCN(S(=O)(=O)c2ccc(NC(C)=O)cc2)CC1` [Example 24, N-(4-(4-(2-(3-ethylureido)benzo[b]thiophene-3-carbonyl)piperazin-1-ylsulfonyl)phenyl)acetamide]: the IC50 on Human ACC1 and on Human ACC2 was less than 5 µM in each case.

For `CCNC(=O)Nc1sc2ccccc2c1C(=O)N1CCN(S(=O)(=O)CCC(=O)OCC)CC1` [Example 25, Ethyl 3-(4-(2-(3-ethylureido)benzo[b]thiophene-3-carbonyl)piperazin-1-ylsulfonyl)propanoate], the IC50 on Human ACC1 and on Human ACC2 was 5 to 50 µM each time.

As for `CCNC(=O)Nc1sc2ccccc2c1C(=O)N1CCN(S(=O)(=O)CC(C)C)CC1` [Example 26, ethyl-3-(3-(4-(isobutylsulfonyl)piperazine-1-carbonyl)benzo[b]thiophen-2-yl)urea], the IC50 at Human ACC1 and on Human ACC2 was 5 to 50 µM each time.

Take `CCNC(=O)Nc1sc2ccccc2c1C(=O)N1CCN(S(=O)(=O)CCC(F)(F)F)CC1` [Example 27, ethyl-3-(3-(4-(3,3,3-trifluoropropylsulfonyl)piperazine-1-carbonyl)benzo[b]thiophen-2-yl)urea]: the results for the IC50 at Human ACC1 and at Human ACC2 were greater than 50 µM and 5 to 50 µM, respectively.

Consider `CCNC(=O)Nc1sc2ccccc2c1C(=O)N1CCN(S(C)(=O)=O)CC1` [Example 28, ethyl-3-(3-(4-(methylsulfonyl)piperazine-1-carbonyl)benzo[b]thiophen-2-yl)urea], for which the IC50 at Human ACC1 and at Human ACC2 was greater than 50 µM in each case.

For `CCNC(=O)Nc1sc2ccccc2c1C(=O)N1CCN(S(=O)(=O)c2ccc(S(C)(=O)=O)cc2)CC1` [Example 29, ethyl-3-(3-(4-(4-(methylsulfonyl)phenylsulfonyl)piperazine-1-carbonyl)benzo[b]thiophen-2-yl)urea], the IC50 on Human ACC1 is greater than 50 µM; on Human ACC2, 5 to 50 µM.

Consider `CCNC(=O)Nc1sc2ccccc2c1C(=O)N1CCN(S(=O)(=O)c2ccc3c(c2)NC(=O)C3)CC1` [Example 30, ethyl-3-(3-(4-(2-oxoindolin-6-ylsulfonyl)piperazine-1-carbonyl)benzo[b]thiophen-2-yl)urea], for which the IC50 is 5 to 50 µM at Human ACC1 and less than 5 µM at Human ACC2.

With `CCNC(=O)Nc1sc2ccccc2c1C(=O)N1CCN(S(=O)(=O)c2ccc3[nH]c(=O)[nH]c3c2)CC1` [Example 31, ethyl-3-(3-(4-(2-oxo-2,3-dihydro-1H-benzo[d]imidazol-5-ylsulfonyl)piperazine-1-carbonyl)benzo[b]thiophen-2-yl)urea], the IC50 at Human ACC1 and at Human ACC2 was less than 5 µM throughout.

Consider `CCNC(=O)Nc1sc2ccccc2c1C(=O)N1CCN(S(=O)(=O)c2ccc3oc(=O)[nH]c3c2)CC1` [Example 32, ethyl-3-(3-(4-(2-oxo-2,3-dihydrobenzo[d]oxazol-5-ylsulfonyl)piperazine-1-carbonyl)benzo[b]thiophen-2-yl)urea], for which the figures for the IC50 on Human ACC1 and on Human ACC2 were greater than 50 µM and 5 to 50 µM, respectively.

Turning to `CCNC(=O)Nc1sc2ccccc2c1C(=O)N1CCN(S(=O)(=O)CCC(=O)N(CC)CC)CC1` [Example 34, N,N-diethyl-3-(4-(2-(3-ethylureido)benzo[b]thiophene-3-carbonyl)piperazin-1-ylsulfonyl)propanamide], the IC50 on Human ACC1 and at Human ACC2 was 5 to 50 µM in each case.

For the compound `CCNC(=O)Nc1sc2ccccc2c1C(=O)N1CCN(S(=O)(=O)CCC(=O)N2CCCC2)CC1` [Example 35, ethyl-3-(3-(4-(3-oxo-3-(pyrrolidin-1-yl)propylsulfonyl)piperazine-1-carbonyl)benzo[b]thiophen-2-yl)urea], the IC50 on Human ACC1 and on Human ACC2 was 5 to 50 µM in each case.

As to `CCNC(=O)Nc1sc2ccccc2c1C(=O)N1CCN(S(=O)(=O)CCC(=O)N2CCOCC2)CC1` [Example 36, ethyl-3-(3-(4-(3-morpholino-3-oxopropylsulfonyl)piperazine-1-carbonyl)benzo[b]thiophen-2-yl)urea], the IC50 on Human ACC1 and on Human ACC2 was 5 to 50 µM in each case.

As to `CCNC(=O)Nc1sc2ccccc2c1C(=O)N1CCC(S(=O)(=O)c2cccc(OC)c2)CC1` [Example 37, ethyl-3-(3-(4-(3-methoxyphenylsulfonyl)piperidine-1-carbonyl)benzo[b]thiophen-2-yl)urea], the IC50 on Human ACC1 was greater than 50 µM; at Human ACC2, less than 5 µM.

In the case of `CCNC(=O)Nc1sc2ccccc2c1C(=O)N1CCC(S(=O)(=O)c2ccc3c(c2)OCO3)CC1` [Example 38, 1-(3-(4-(benzo[d][1,3]dioxol-5-ylsulfonyl)piperidine-1-carbonyl)benzo[b]thiophen-2-yl)-3-ethylurea], the IC50 on Human ACC1 and at Human ACC2 was greater than 50 µM each time.

`CCNC(=O)Nc1sc2ccccc2c1C(=O)N1CCC(Sc2cccc(OC)c2)CC1` [Example 39, ethyl-3-(3-(4-(3-methoxyphenylthio)piperidine-1-carbonyl)benzo[b]thiophen-2-yl)urea]: the IC50 on Human ACC1 and on Human ACC2 was less than 5 µM each time.

`CCNC(=O)Nc1sc2ccccc2c1C(=O)N1CCC(Sc2cccc(OC(F)(F)F)c2)CC1` [Example 40, ethyl-3-(3-(4-(3-(trifluoromethoxy)phenylthio)piperidine-1-carbonyl)benzo[b]thiophen-2-yl)urea]: the IC50 on Human ACC1 is greater than 50 µM; at Human ACC2, 5 to 50 µM.

Regarding `CCNC(=O)Nc1sc2ccccc2c1C(=O)N1CCC([S+]([O-])c2cccc(OC)c2)CC1` (centres unmarked) [Example 41, ethyl-3-(3-(4-(3-methoxyphenylsulfinyl)piperidine-1-carbonyl)benzo[b]thiophen-2-yl)urea], the IC50 at Human ACC1 and on Human ACC2 was 5 to 50 µM each time.

For `CCNC(=O)Nc1sc2ccccc2c1C(=O)N1CCC([S+]([O-])c2cccc(OC(F)(F)F)c2)CC1` (centres unmarked) [Example 42, ethyl-3-(3-(4-(3-(trifluoromethoxy)phenylsulfinyl)piperidine-1-carbonyl)benzo[b]thiophen-2-yl)urea], the IC50 is greater than 50 µM at Human ACC1 and 5 to 50 µM on Human ACC2.
